Data: patent publication US20110020272A1, “COMBINATION THERAPY FOR TREATING HEPATITIS VIRAL INFECTION” (priority 2009, published 2011)

What was measured:
[1] = test system: HCV genotype 1; conditions: highest dose group; viral load above 100,000 IU/mL; cited from earlier work
[2] = target: human cyclophilin A (Homo sapiens, UniProt P62937); conditions: cited from earlier work
[3] = test system: sub-genomic HCV Con 1 isolate in Luc-ubi-neo/ET Replicon cells; assay: HCV RNA replication in Luc-ubi-neo/ET Replicon cells, combined/sequential PI and IFN; format: cell-based
Protocol: Replicon cells are in general Luc-ubi-neo/ET Replicon cells, which are derived from Huh7 cells and which harbor a sub-genomic HCV Con 1 isolate with a luciferase reporter gene. These so-called Replicon cells allow for in vitro screening of antiviral substances by autonomous HCV RNA replication.
After a 24 hour combined incubation, the medium was changed and cells were incubated for another 48 hours with PI alone. After these 3 days of incubation, HCV RNA replication was determined with respect to the non-treated control.

[4] = test system: Luc-ubi-neo/ET Replicon cells; assay: Cytotoxicity in Replicon cells; format: cell-based, human; conditions: 750 nM PI and 0.5 U/ml IFN
Protocol: Luc-ubi-neo/ET-cells were seeded and incubated with PI and IFN (Roferon A, Roche) for 24 hours on the following day. […] After a 24 hour combined incubation, the medium was changed and cells were incubated for another 48 hours with PI alone. After these 3 days of incubation, HCV RNA replication was determined with respect to the non-treated control.

[5] = PI and IFN 24 h, subsequently PI alone 48 h, 750 nM PI and 0.5 U/ml IFN

human cyclophilin A, sequence (P62937 whole entry): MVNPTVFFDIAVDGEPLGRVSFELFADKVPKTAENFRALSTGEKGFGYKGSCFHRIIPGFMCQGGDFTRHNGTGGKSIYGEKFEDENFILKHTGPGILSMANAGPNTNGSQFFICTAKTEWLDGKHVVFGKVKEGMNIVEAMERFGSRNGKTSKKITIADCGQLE

| SMILES | mean nadir decrease in plasma HCV RNA [1] | binding to human cyclophilin A [2] | basal replication (HCV RNA replication) [3, 5] | inhibition of RNA replication [3, 5] | effect of combination of PI and IFN on HCV-bearing cells ([3]; combined or sequential treatment) | inhibition of HCV RNA replication ([3]; initial experiments, IFN 0.5 U/ml, PI 500-1000 nM) | cytotoxicity [4] |
| --- | --- | --- | --- | --- | --- | --- | --- |
| C/C=C/C[C@@H](C)[C@@H](O)[C@H]1C(=O)N[C@@H](CC)C(=O)N(C)[C@H](SCCN(C)C)C(=O)N(C)[C@@H](CC(C)(C)O)C(=O)N[C@@H](C(C)C)C(=O)N(C)[C@@H](CC(C)C)C(=O)N[C@@H](C)C(=O)N[C@H](C)C(=O)N(C)[C@@H](CC(C)C)C(=O)N(C)[C@@H](CC(C)C)C(=O)N(C)[C@@H](C(C)C)C(=O)N1C [SCY-635] | 2.20 log 10 IU/mL | nanomolar concentrations | – | – | – | – | – |
| O=C1CN(N=C[C@H](Cc2ccccc2)NC(=O)[C@H](Cc2c[nH]c3ccccc23)NC(=O)[C@H](Cc2c[nH]c3ccccc23)NC(=O)OCc2ccccc2)C(=O)N1 [S-2209, S,S,S-[1-[1-[1-Benzyl-2-(2,4-dioxo-imidazolidin-1-ylimino)-ethylcarbamoyl]-2-(1H-indol-3-yl)-ethylcarbamoyl]-2-(1H-indol-3-yl)-ethyl]-carbamic acid benzyl ester] | – | – | approximately 10% | 90% | synergistic effect | only a low inhibition | no cytotoxicity is observed |
